In data set [1] the test system is A. baumannii strain 98-37-09. Description: MEC determination: potentiation of minocycline toward serum grown A. baumannii. Type of data set: cell-based, Acinetobacter baumannii. Particulars: for Log-reduction Colony Forming Units (ml^−1): 1×MEC of compound plus minocycline in serum, versus minocycline alone, plating; for MEC: lowest concentration inhibiting growth in 100% human serum with 0.5 μg ml^−1 minocycline, 48 hr. As for the experimental part:
The TimTec ActiProbe-25K diversity-set and Natural Product compound libraries (29,900 compounds total; TimTec, Newark, Del.) were initially screened for putative efflux pump inhibitors by identifying compounds that potentiated the antimicrobial property of a sub-inhibitory concentration of minocycline toward A. baumannii grown in human serum. To do so, A. baumannii strain 98-37-09 was grown for 16 hours in LB medium at 37° C. on a rotary shaker at 225 rpm. Approximately 1×10^5 CFU were then transferred to individual wells of a 96-well round-bottom plate (Corning Costar, Tewksbury, Mass.) containing 100 μL of human serum supplemented with of minocycline (0.5 μg mL^−1; 0.5× minimum inhibitory concentration in serum) and individual members of the Timtec ActiProbe or Natural product library (50 μM). Plates were then incubated at 37° C. for 48 hours. Growth was measured as a function of turbidity. Putative efflux pump inhibitors were identified as compounds that inhibited A. baumannii growth in human serum containing minocycline and were subsequently retested in triplicate, as indicated above. Untreated A. baumannii grown in serum supplemented with minocycline+/−PAβN served as positive and negative controls, respectively. […] Repeat testing in which well constituents were serial diluted and plated on LB agar plates validated that 85 compounds did indeed limit A. baumannii growth in serum supplemented with minocycline, reducing the number of viable colony forming units between 2-6 log cfu in comparison to minocycline alone treated cells.
The MEC was defined as the lowest concentration of test compound required to inhibit the growth of A. baumannii in serum in the presence of 0.5 μg ml^−1 minocycline. Plating confirmed that addition of 1×MEC of each compound elicited ≥1.9-log reduction in A. baumannii cells grown in serum supplemented with minocycline alone (see Table 1).

In data set [2] the test system is A. baumannii strain 98-37-09. Description: Cellular accumulation of minocycline (HPLC, triple-quadrupole MS). The class given is cell-based, Acinetobacter baumannii. Particulars: human serum with 0.5 μg mL^−1 minocycline plus test compound (0.5×MEC, 1×MEC), 48 hours. The method, then:
High pressure liquid chromatography and triple-quadrupole mass spectrometry were used to measure the A. baumannii intracellular levels of minocycline during growth in human serum in the absence and presence of each putative efflux pump inhibitor. […] Cultures were incubated for 48 hours with shaking, at which point an aliquot was removed, serially diluted, and plated to determine the number of viable CFU per mixture. The remainder of the cells were pelleted by centrifugation at 900×g at 4° C., washed twice in PBS, mechanically lysed with a FastPrep cell disrupter (MP Biomedicals, Santa Ana, Calif.) for 20 seconds at 5 m s^−1 and the cellular debris was pelleted via centrifugation at 900×g and 4° C. The amount of minocycline present within the supernatant of ruptured cells was measured. Briefly, doxycycline (0.5 μg mL^−1) was first added to each supernatant to serve as an internal control to account for sample-to-sample preparation variability. The supernatant was then combined with acetonitrile (ACN) at a 1:10 ratio and centrifuged at 16,000×g, at 4° C., to collect minocycline and doxycycline. […] residual liquid was evaporated in a speed vacuum for 2 hours at 8,000×g. To quantify the amount of antibiotics retained, sample materials were suspended in 50% acetonitrile, filtered through a 0.2 μm low protein binding hydrophilic membrane (Millipore, Billerica, Mass.) then separated on Shimadzu high performance liquid chromatography instrument (Fisher Scientific) using a BetaBasic C18 reverse phase column (Thermo Scientific). Separation was carried out with two mobile phase solutions consisting of solution (A) water with 0.1% formic acid and solution (B) 100% ACN. The gradient profile of the chromatography runs was as follows: from 0 to 0.1 min 8% solution B, ramp step wise (37% to 60% solution B) from 0.1 to 6.5 min then holding for one minute before ramping down from 60% to 10% from 7.5 to 8 min. This was followed a hold at 10% solution B for one minute. […] The column was equilibrated in 8% solution B at 40° C. and the flow rate was set to 0.2 mL min^−1. Mass spectrometry analysis of fractions was carried out using a Thermo TSQ Quantum Ultra triple quadrupole mass spectrometer (Fisher Scientific). Data were analyzed using Xcalibur software (Thermo Scientific); the following parameters were used to detect minocycline and the internal control doxycycline: 458.208 m/z→282.971 m/z (collision energy=43, tube lens=119) for minocycline and 445.144 m/z→266.900 m/z (collision energy=39, tube lens=127) for doxycycline. Analysis of the raw data was conducted by using the area under the curve calculations with the Genesis algorithm to determine the concentration in each sample. The difference between the peak intensity and the y intercept of pre-established minocycline and doxycycline standard curves was divided by the slope of the standard curve to quantify the amount of minocycline within each sample. The total concentration of minocycline within each cell was calculated by normalizing to the number of cells within each corresponding culture.

Data set [3] relates to A. baumannii strain 98-37-09. Description: Potentiation of ciprofloxacin toward serum grown A. baumannii. The class given is cell-based, Acinetobacter baumannii. Particulars: 100% human serum, 0.125 μg ml^−1 ciprofloxacin, 1× or 2× MEC, 48 hour, growth inhibition. The text has this:
As a means to further prioritize non-toxic compounds of interest based on their therapeutic promise, it was considered that broad spectrum antimicrobial efflux pump inhibitors may be more clinically valuable than narrow-spectrum agents that only potentiate the activity of a limited number of antibiotics or that display activity toward a single bacterial species. […] To do so, 1×10^5 A. baumannii strain 98-37-09 were inoculated into individual wells of microtiter plates containing 100% human serum supplemented with 0.125 μg ml^−1 ciprofloxacin and 0, 1×, or 2× the compound's MEC, as defined by the lowest concentration needed to potentiated minocycline's antimicrobial effects (above). Plates were incubated for 48 hour at which point each compound's ability to potentiate ciprofloxacin was measured, as growth inhibition.

Data set [4] deals with human HepG2 cells. The data set is described as follows: MTT cell viability (cytotoxicity) assay. As for the experimental part: To distinguish putatively non-toxic from human cytotoxic compounds, conventional 3-(4,5-dimethylthiazol-2yl)-2,5-diphenyltetrazolium bromide (MTT) cell viability assays (American Type Culture Collection, Manassas, Va.) were performed for each compound of interest at 1× and 4× their MEC. Briefly, human HepG2 cells were grown to approximately 1×10^6 cells per well in Dulbecco's Modified Eagle Media supplemented with 10% fetal bovine serum (Invitrogen, Carlsbad, Calif.) then treated with 1× or 4× the MEC of the indicated […] Cell viability was measured following the addition of the tetrazolium salt (MTT) as per the manufacturer's recommendations; cells challenged with 50 ug ml^−1 Mitomycin C (Sigma Aldrich) and mock-treated cells served as positive and negative controls, respectively.

This is an account of results in patent US10471028B2, “Small molecule efflux pump inhibitors” (UNIVERSITY OF ROCHESTER, priority 2014, dated 2019).

Where two headings read alike, the source gives them in different places.

`CC(=O)NS(=O)(=O)c1ccc(N)cc1` [ST040724]: in data set [1], the “Log-reduction Colony Forming Units (ml^−1)” value was found to be 4.08 log and the MEC came to 64 µg/mL. The “Minocylcine Per Cell (femtomoles cell^−1)” value (shortened to “Minocylcine Per Cell”) in data set [2] is 1.45E−04 femtomoles cell^−1. Besides, the “Potentiate Ciprofloxacin A. baumannii” value in data set [3] is given as “No”.
Take `COC(=O)CCC(=O)Nc1ccc(S(N)(=O)=O)cc1` [ST040289]: in data set [1], the “Log-reduction Colony Forming Units (ml^−1)” value is reported as 4.32 log and the MEC turned out to be 4 µg/mL. The “Minocylcine Per Cell” value in data set [2] was determined as 8.38E−04 femtomoles cell^−1. Besides, the “Potentiate Ciprofloxacin A. baumannii” value in data set [3] is “No”. Moreover, the “% Viability” value in data set [4] is recorded as 78.8%.
`C/C(=N\NC(=O)c1ccccc1F)c1ccccc1O` [ST033061]: in data set [1], the “Log-reduction Colony Forming Units (ml^−1)” value is 2.18 log and the MEC was found to be 2 µg/mL. In data set [2], the “Minocylcine Per Cell” value stood at 1.96E−04 femtomoles cell^−1. Moreover, the “Potentiate Ciprofloxacin A. baumannii” value in data set [3] is “No”. For the same molecule, in data set [4], the “% Viability” value is listed as 77.58%.
`O=C(N/N=C/c1ccc2c(c1)OCO2)c1ccccc1O` [ST033341]: in data set [1], the “Log-reduction Colony Forming Units (ml^−1)” value is 2.42 log and the MEC worked out at 2 µg/mL. In data set [2], the “Minocylcine Per Cell” value is reported as 3.39E−05 femtomoles cell^−1. Moreover, the “Potentiate Ciprofloxacin A. baumannii” value in data set [3] is recorded as “No”. Moreover, in data set [4], the “% Viability” value came out at 75.88%.
Consider `N#Cc1c(/N=C/c2ccc([N+](=O)[O-])o2)sc2c1CCCC2` [ST033065], for which, in data set [1], the “Log-reduction Colony Forming Units (ml^−1)” value was found to be 2.44 log and the MEC is 2 µg/mL. Also, in data set [2], the “Minocylcine Per Cell” value is listed as 2.06E−05 femtomoles cell^−1. In addition, the “Potentiate Ciprofloxacin A. baumannii” value in data set [3] is listed as “No”. Also, in data set [4], the “% Viability” value was found to be 75.6%.
Consider `CCOC(=O)/C=C/C(=O)Nc1ccc(S(=O)(=O)Nc2nccs2)cc1` [ST026450], for which, in data set [1], the “Log-reduction Colony Forming Units (ml^−1)” value worked out at 5.37 log and the MEC was 32 µg/mL. For the same molecule, in data set [2], the “Minocylcine Per Cell” value came out at 2.35E−06 femtomoles cell^−1. Further, the “Potentiate Ciprofloxacin A. baumannii” value in data set [3] is “No”. For the same molecule, the “% Viability” value in data set [4] (human, 48 h, 4 ×MEC) turned out to be 100%.
As to `Cc1cccc(N(CC(=O)Nc2ccc(Cc3ccncc3)cc2)S(=O)(=O)c2ccccc2)c1` [ST034014], in data set [1], the “Log-reduction Colony Forming Units (ml^−1)” value worked out at 2.37 log and the MEC turned out to be 2 µg/mL. The “Minocylcine Per Cell” value in data set [2] was 5.46E−04 femtomoles cell^−1. Moreover, the “Potentiate Ciprofloxacin A. baumannii” value in data set [3] is “No”. The “% Viability” value in data set [4] is listed as 84.27%.
Consider `Cc1ccc(C=Nc2cc([N+](=O)[O-])ccc2O)cc1` [ST010277], for which, in data set [1], the “Log-reduction Colony Forming Units (ml^−1)” value is reported as 7.33 log and the MEC was 32 µg/mL. Further, the “Minocylcine Per Cell” value in data set [2] came out at 1.15E−05 femtomoles cell^−1. In data set [3], the “Potentiate Ciprofloxacin A. baumannii” value is on record as “No”. Besides, in data set [4], the “% Viability” value stood at 82.4%.
Consider `COc1ccc2c(c1)CCC(C)N2S(=O)(=O)c1ccc(C2CNC(=O)C2)cc1` (stereo not shown) [ST058899], for which, in data set [1], the “Log-reduction Colony Forming Units (ml^−1)” value was 6.21 log and the MEC was determined as 64 µg/mL. Moreover, the “Minocylcine Per Cell” value in data set [2] was found to be 1.08E−04 femtomoles cell^−1. For the same molecule, the “Potentiate Ciprofloxacin A. baumannii” value in data set [3] is “No”. In addition, the “% Viability” value in data set [4] is reported as 80.69%.
In the same order, the values of `Cc1ccc(C2N(Cc3ccccc3)CCCN2Cc2ccccc2)o1` [ST048001] are 7.06 log, 32 µg/mL, 1.99E−04 femtomoles cell^−1, “No” and 82.72%.
Consider `O=C1c2ccccc2C(=O)N1CCN1CCNCC1` [ST059581], for which, in data set [1], the “Log-reduction Colony Forming Units (ml^−1)” value came out at 6.12 log and the MEC was 32 µg/mL. In data set [2], the “Minocylcine Per Cell” value was found to be 5.64E−05 femtomoles cell^−1. Moreover, the “Potentiate Ciprofloxacin A. baumannii” value in data set [3] was “No”. The “% Viability” value in data set [4] was determined as 84.56%.
Turning to `Nc1ccc(S(=O)(=O)Nc2ncccn2)cc1` [ST059447], in data set [1], the “Log-reduction Colony Forming Units (ml^−1)” value came out at 5.74 log and the MEC amounted to 4 µg/mL. In addition, the “Minocylcine Per Cell” value in data set [2] is 4.52E−05 femtomoles cell^−1. Also, in data set [3], the “Potentiate Ciprofloxacin A. baumannii” value is given as “No”. Moreover, in data set [4], the “% Viability” value is on record as 76.78%.
Turning to `CCOC(=O)/C=C/C(=O)Nc1ccc(S(N)(=O)=O)cc1` [ST026465], in data set [1], the “Log-reduction Colony Forming Units (ml^−1)” value was determined as 6.36 log and the MEC is 32 µg/mL. Moreover, the “Minocylcine Per Cell” value in data set [2] turned out to be 3.82E−04 femtomoles cell^−1. Also, the “Potentiate Ciprofloxacin A. baumannii” value in data set [3] is given as “No”. Further, the “% Viability” value in data set [4] (human, 48 h, 4 ×MEC) turned out to be 100%.
`COc1ccc(C2N(Cc3ccccc3)CCN2Cc2ccccc2)cc1` [ST036291]: in data set [1], the “Log-reduction Colony Forming Units (ml^−1)” value stood at 3.31 log and the MEC stood at 2 µg/mL. Further, in data set [2], the “Minocylcine Per Cell” value is reported as 5.5E−05 femtomoles cell^−1. In addition, in data set [3], the “Potentiate Ciprofloxacin A. baumannii” value was “No”. In addition, the “% Viability” value in data set [4] is given as 75.74%.
As for `COC(=O)c1ccc(COc2ccc(-c3nnn[nH]3)cc2)cc1` [ST060272], in data set [1], the “Log-reduction Colony Forming Units (ml^−1)” value was 6.90 log and the MEC worked out at 32 µg/mL. For the same molecule, the “Minocylcine Per Cell” value in data set [2] was determined as 3.67E−07 femtomoles cell^−1. Moreover, the “Potentiate Ciprofloxacin A. baumannii” value in data set [3] was “No”. In data set [4], the “% Viability” value is given as 85.35%.
In the same order, the values of `Cc1cc2c(c(=O)o1)C(c1ccc(F)cc1)C(C#N)=C(N)O2` (stereo not shown) [ST007013] are 1.95 log, 4 µg/mL, 5E−04 femtomoles cell^−1, “No” and 80.9%.
